Source: patent US5756763A, “Pyrrolidine derivatives” (Zaidan Hojin Biseibutsu Kagaku Kenkyukai, priority 1993, dated 1998)
pIC50: −log10 of the molar value.

Experiments:
prolyl endopeptidase = molecular target: T1, prolyl endopeptidase (Sus scrofa, UniProt P23687); assay: Enzyme inhibitory action on swine kidney-derived prolyl endopeptidase (Z-Gly-Pro-β-naphthylamide substrate); type: biochemical; conditions: swine kidney prolyl endopeptidase, 0.1 mM substrate, 37° C., 30 minutes, pH 7.5
T1 construct: swine kidney-derived prolyl endopeptidase; from tissue; host or cells: swine kidney
T1 sequence (P23687 whole entry): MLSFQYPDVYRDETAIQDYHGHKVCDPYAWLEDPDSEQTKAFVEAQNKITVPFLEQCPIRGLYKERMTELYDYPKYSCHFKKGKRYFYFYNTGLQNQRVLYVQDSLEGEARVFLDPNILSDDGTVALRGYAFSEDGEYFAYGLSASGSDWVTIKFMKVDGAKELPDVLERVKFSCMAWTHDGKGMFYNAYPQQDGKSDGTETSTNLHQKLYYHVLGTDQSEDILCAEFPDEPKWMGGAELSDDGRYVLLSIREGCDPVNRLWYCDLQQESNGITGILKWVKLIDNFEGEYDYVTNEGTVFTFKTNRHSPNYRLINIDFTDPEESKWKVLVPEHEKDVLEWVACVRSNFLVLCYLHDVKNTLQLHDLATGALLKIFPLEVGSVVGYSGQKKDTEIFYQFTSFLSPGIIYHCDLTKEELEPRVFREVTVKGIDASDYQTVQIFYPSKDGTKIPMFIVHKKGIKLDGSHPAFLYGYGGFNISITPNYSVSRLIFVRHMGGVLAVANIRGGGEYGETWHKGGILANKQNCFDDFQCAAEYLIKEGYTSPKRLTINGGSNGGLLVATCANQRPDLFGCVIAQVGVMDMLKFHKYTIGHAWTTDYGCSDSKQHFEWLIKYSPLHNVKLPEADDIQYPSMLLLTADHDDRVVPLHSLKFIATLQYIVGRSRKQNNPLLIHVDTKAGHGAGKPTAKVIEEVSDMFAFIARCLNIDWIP
Description: (§1) Using 0.1 mM of benzyolxycarbonylglycylproline-β-naphthylamide as substrate and swine kidney-derived prolyl endopeptidase as enzyme, the enzyme was acted on the substrate at 37° C. for 30 minutes in 0.025 M Tris(hydroxymethyl)methane amine-hydrochloric acid (pH 7.5) solution. Fast Garnet was added to form a color and absorbance was measured at 525 nm. The inhibitory activity is expressed in terms of concentration required for 50% inhibition (IC50).

[1] = test system: prolyl endopeptidase in mouse brain; assay: Prolyl endopeptidase inhibition activity in mouse brain after intravenous administration; type: in vivo, mouse (male ddy strain); conditions: 30 mg/kg i.v., 30 minutes after administration, control = 100
Description: as §1
Each of the compounds of the present invention was dissolved in physiological saline or physiological saline added with a surfactant. The solution was intravenously administered to male ddy strain mice (3 in one group) at a dose of 30 mg/kg. For control, physiological saline or a surfactant alone was intravenously given to 3 mice in a similar manner.
Thirty minutes after administration, the animal was bled to death and the whole brain was excised out. Each brain was homogenized with 20-fold volume of 0.1M phosphate buffer containing 2 mM DTT and the homogenate was centrifuged at 3000 g for 20 minutes. The prolyl endopeptidase in the resulting supernatant was determined as in Experiment 1, as β-naphthylamine isolated. When the mean enzyme activity in the mouse brain for control is made 100 (β-naphthylamine value: 3.88±0.26), the residual enzyme activity was determined when the compounds of the present invention was administered.

| Structure (SMILES) | pIC50 (prolyl endopeptidase) | Residual Enzyme Activity (%) [1] [%] |
| --- | --- | --- |
| O=C(NC1CCCCC1)C(=O)C1CCCN1C(=O)c1ccc2ccccc2c1 (stereo not drawn) [Example 64, N-Cyclohexyl-2-oxo-2-[2-(1-(2-naphthoyl)pyrrolidinyl)]acetamide] | 7.66 | 50.5 |
| O=C(NC1CCCCC1)C(=O)C1CCCN1C(=O)c1ccc(CN2CCOCC2)cc1 (stereo not drawn) [Example 84, N-Cyclohexyl-2-oxo-2-[2-(1-(4-morpholinomethylbenzoyl)pyrrolidinyl)]acetamide] | 7.14 | 50.3 |
| O=C(NC1CCCCC1)C(=O)C1CCCN1C(=O)C(Cc1ccccc1)NC(=O)c1ccccn1 (stereo not drawn) [Example 26, N-Cyclohexyl-2-oxo-2-[2-(1-(N-(2-pyridylcarbonyl)phenylalanyl)pyrrolidinyl)]acetamide] | 8.75 | 5.7 |
| O=C(NC1CCCCC1)C(=O)C1CCCN1C(=O)C(CC1CCCCC1)NC(=O)c1ccc2ccccc2n1 (stereo not drawn) [Example 124, N-Cyclohexyl-2-oxo-2-[2-(1-(N-(2-quinolylcarbonyl)-β-cyclohexylalanyl)pyrrolidinyl)]acetamide] | 8.43 | – |
| O=C(Cc1ccccn1)NC(Cc1ccccc1)C(=O)N1CCCC1C(=O)C(=O)NC1CCCCC1 (stereo not drawn) [Example 24, N-Cyclohexyl-2-oxo-2-[2-(1-(N-(2-pyridyl)acetylphenylalanyl)pyrrolidinyl)]acetamide] | 8.65 | – |
| O=C[C@@H]1CCCN1C(=O)[C@H](Cc1ccccc1)NC(=O)c1cccc(Oc2ccccc2)c1 [Reference Example 4, N-(N-(3-Phenoxybenzoyl)-L-phenylalanyl)-L-prolinal, reference compound] | 6.60 | – |
